Test [1] concerns MDA-MB-231 cells. Briefly: MTT cytotoxicity assay, MDA-MB-231 breast cancer cells. The class given is cell-based. The conditions noted are these: Homo sapiens, MDA-MB-231, MTT assay; mean ± SD of three independent trials; read-out: IC50 ± SD, MDA-MB-231. As to the method: (§1) All cells were incubated at 37 °C in 5% carbon dioxide atmosphere (NuAire). Cells were plated at a density of 5x10^4 cells in triplicates in a plate of 96 wells. On the second day, cells were treated with the compounds with concentrations of (0.01, 0.1, 1, 10, and 100 µM). Cell viability was assessed using the MTT assay [6].

Test [2] has as its system MCF-7 cells. Kind of test: MTT cytotoxicity assay, MCF-7 breast cancer cells. The class given is cell-based. The conditions noted are these: Homo sapiens, MCF7; MTT assay; mean ± SD of three independent trials; read-out: IC50 ± SD, MCF-7. As to the method: as §1
Background: Formazan colour is commonly taken as a measure of viable cells.

The IC50 is the point on the concentration scale where inhibition reaches its midpoint.

As to `COC(=O)CNC(=O)CN1C(=O)S[C@@]2(C1=O)[C@@H](c1ccc(Cl)cc1)[C@H]1CSCN1[C@@]21C(=O)Nc2ccc(Cl)cc21` [Compound 5a, Methyl (2-((3S,6′S,7′S,7a′S)-5-chloro-7'-(4-chlorophenyl)-2,2″,4″-trioxo-7′,7a′-dihydro-1′H,3′H-dispiro [indoline-3,5′-pyrrolo [1,2-c]thiazole-6′,5″-thiazolidin]-3″-yl)acetyl)glycinate], the figures for the IC50 in test [1] and in test [2] were 29.5 ± 1.3 µM and 5.87 ± 0.5 µM, respectively.

With `COC(=O)CNC(=O)CN1C(=O)S[C@@]2(C1=O)[C@@H](c1ccc(Cl)cc1)[C@H]1CSCN1[C@@]21C(=O)Nc2cc(Cl)ccc21` [Compound 5b, Methyl (2-((3S,6′S,7′S,7a′S)-6-chloro-7'-(4-chlorophenyl)-2,2″,4″-trioxo-7′,7a′-dihydro-1′H,3′H-dispiro [indoline-3,5′-pyrrolo [1,2-c]thiazole-6′,5″-thiazolidin]-3″-yl)acetyl)glycinate], the values for the IC50 in test [1] and in test [2] were 32.5 ± 0.42 µM and 7.8 ± 0.32 µM, respectively.

For the compound `O=C(O)CN1C(=O)S[C@@]2(C1=O)[C@@H](c1ccc(Cl)cc1)[C@H]1CSCN1[C@@]21C(=O)Nc2cc(Cl)ccc21` [Compound 5c, 2-((3S,6′S,7′S,7a′S)-6-chloro-7'-(4-chlorophenyl)-2,2″,4″-trioxo-7′,7a′-dihydro-1′H,3′H-dispiro [indoline-3,5′-pyrrolo [1,2-c]thiazole-6′,5″-thiazolidin]-3″-yl)acetic acid], the figures for the IC50 in test [1] and in test [2] were 24.2 ± 1.1 µM and 15.8 ± 0.4 µM, respectively.

As to `O=C(O)CN1C(=O)S[C@@]2(C1=O)[C@@H](c1ccc(Cl)cc1)[C@H]1CSCN1[C@@]21C(=O)Nc2ccc(F)cc21` [Compound 5d, 2-((3S,6′S,7′S,7a′S)-7'-(4-Chlorophenyl)-5-fluoro-2,2″,4″-trioxo-7′,7a′-dihydro-1′H,3′H-dispiro [indoline-3,5′-pyrrolo [1,2-c]thiazole-6′,5″-thiazolidin]-3″-yl)acetic acid], the IC50 in test [1] was 9.8 ± 0.35 µM; in test [2], 19.4 ± 0.4 µM.

`Cc1ccc2c(c1)[C@@]1(C(=O)N2)N2CSC[C@@H]2[C@H](c2ccc(Cl)cc2)[C@]12SC(=O)N(CC(=O)O)C2=O` [Compound 5e, 2-((3S,6′S,7′S,7a′S)-7'-(4-Chlorophenyl)-5-methyl-2,2″,4″-trioxo-7′,7a′-dihydro-1′H,3′H-dispiro [indoline-3,5′-pyrrolo [1,2-c]thiazole-6′,5″-thiazolidin]-3″-yl)acetic acid]: the results for the IC50 in test [1] and in test [2] were 5.4 ± 0.6 µM and 9.8 ± 0.7 µM, respectively.

In the case of `O=C(O)CN1C(=O)S[C@@]2(C1=O)[C@@H](c1ccc(Cl)cc1)[C@H]1CSCN1[C@@]21C(=O)Nc2ccc([N+](=O)[O-])cc21` [Compound 5f, 2-((3S,6′S,7′S,7a′S)-7'-(4-Chlorophenyl)-5-nitro-2,2″,4″-trioxo-7′,7a′-dihydro-1′H,3′H-dispiro [indoline-3,5′-pyrrolo [1,2-c]thiazole-6′,5″-thiazolidin]-3″-yl)acetic acid], the results for the IC50 in test [1] and in test [2] were 35.5 ± 1.1 µM and 18.5 ± 0.6 µM, respectively.

In the case of `O=C(CN1C(=O)S[C@@]2(C1=O)[C@@H](c1ccc(Cl)cc1)[C@H]1CSCN1[C@@]21C(=O)Nc2ccc([N+](=O)[O-])cc21)NCCN1CCOCC1` [Compound 5i], the concentration for half-maximal inhibition (IC50) in test [1] turned out to be 35.3 ± 1.2 µM; in test [2], 28.7 ± 0.8 µM.

On to `O=C(CN1C(=O)S[C@@]2(C1=O)[C@@H](c1ccc(Cl)cc1)[C@H]1CSCN1[C@@]21C(=O)Nc2ccc(F)cc21)NCCN1CCOCC1` [Compound 5j], for which the IC50 in test [1] was determined as 21.4 ± 0.8 µM; in test [2], 23.4 ± 1.2 µM.

As to `O=C(CN1C(=O)S[C@@]2(C1=O)[C@@H](c1ccc(Cl)cc1)[C@H]1CSCN1[C@@]21C(=O)Nc2ccc(Cl)cc21)NCCN1CCOCC1` [Compound 5k], the IC50 in test [1] came out at 19.5 ± 0.7 µM; in test [2] it was 21.4 ± 0.9 µM.

The values are drawn from PMC10937419, “Exploring pyrrolidinyl-spirooxindole natural products as promising platforms for the synthesis of novel spirooxindoles as EGFR/CDK2 inhibitors for halting breast cancer cells” (Frontiers in Chemistry, 2024).
